# Reference: ChEMBL document CHEMBL2440076, “New triarylpyrazoles as broad-spectrum anticancer agents: design, synthesis, and biological evaluation” (Eur J Med Chem, 2013)
# Legend:
# Type in all cases: functional
# [1] = Growth inhibition of human NCI-ADR-RES cells assessed as cell growth at 5X10'-6 M after 48 hrs by sulforhodamine B assay; settings: read-out: Activity
# HCT-116 = assay: Growth inhibition of human HCT116 cells assessed as cell growth at 3X10'-8 M after 48 hrs by sulforhodamine B assay; settings: HCT-116, 48 h, read-out: Activity
# KM12 = assay: Growth inhibition of human KM12 cells assessed as cell growth at 3X10'-5 M after 48 hrs by sulforhodamine B assay; settings: KM12, 48 h, read-out: Activity
# CCRF-CEM = assay: Growth inhibition of human CCRF-CEM cells assessed as cell growth at 3X10'-8 M after 48 hrs by sulforhodamine B assay; settings: read-out: Activity
# UO-31 = assay: Growth inhibition of human UO31 cells assessed as cell growth at 3X10'-5 M after 48 hrs by sulforhodamine B assay; settings: UO-31, 48 h, read-out: Activity
# NCI-H23 = assay: Growth inhibition of human NCI-H23 cells assessed as cell growth at 3X10'-9 M after 48 hrs by sulforhodamine B assay; settings: NCI-H23, 48 h, read-out: Activity
# SNB-19 [2] = assay: Growth inhibition of human SNB19 cells assessed as cell growth at 3X10'-9 M after 48 hrs by sulforhodamine B assay; settings: SNB-19, 48 h, read-out: Activity
# SN12C [3] = assay: Growth inhibition of human SN12C cells assessed as cell growth at 3X10'-6 M after 48 hrs by sulforhodamine B assay; settings: read-out: Activity
# OVCAR-4 = assay: Growth inhibition of human OVCAR4 cells assessed as cell growth at 3X10'-6 M after 48 hrs by sulforhodamine B assay; settings: OVCAR-4, 48 h, read-out: Activity
# SK-MEL-5 = assay: Growth inhibition of human SK-MEL-5 cells assessed as cell growth at 3X10'-9 M after 48 hrs by sulforhodamine B assay; settings: SK-MEL-5, 48 h, read-out: Activity
# SNB-19 [4] = assay: Growth inhibition of human SNB19 cells assessed as cell growth at 3X10'-8 M after 48 hrs by sulforhodamine B assay; settings: SNB-19, 48 h, read-out: Activity
# A498 = assay: Growth inhibition of human A498 cells assessed as cell growth at 3X10'-8 M after 48 hrs by sulforhodamine B assay; settings: A498, 48 h, read-out: Activity
# RXF 393 = assay: Growth inhibition of human RXF393 cells assessed as cell growth at 3X10'-7 M after 48 hrs by sulforhodamine B assay; settings: RXF 393, 48 h, read-out: Activity
# OVCAR-3 = assay: Growth inhibition of human OVCAR3 cells assessed as cell growth at 3X10'-7 M after 48 hrs by sulforhodamine B assay; settings: OVCAR-3, 48 h, read-out: Activity
# [5] = Growth inhibition of human NCI-ADR-RES cells assessed as cell growth at 3X10'-8 M after 48 hrs by sulforhodamine B assay; settings: read-out: Activity
# HL-60(TB) = assay: Growth inhibition of human HL-60(TB) cells assessed as cell growth at 3X10'-6 M after 48 hrs by sulforhodamine B assay; settings: HL-60, 48 h, read-out: Activity
# Malme-3M = assay: Growth inhibition of human MALME-3M cells assessed as cell growth at 3X10'-7 M after 48 hrs by sulforhodamine B assay; settings: read-out: Activity
# SR [6] = assay: Growth inhibition of human SR cells assessed as cell growth at 10^-4 M after 48 hrs by sulforhodamine B assay; settings: read-out: Activity
# MDA-MB-435 = assay: Growth inhibition of human MDA-MB-435 cells assessed as cell growth at 10^-8 M after 48 hrs by sulforhodamine B assay; settings: MDA-MB-435, 48 h, read-out: Activity
# TK-10 = assay: Growth inhibition of human TK10 cells assessed as cell growth at 10^-6 M after 48 hrs by sulforhodamine B assay; settings: TK-10, 48 h, read-out: Activity
# NCI-H522 = assay: Growth inhibition of human NCI-H522 cells assessed as cell growth at 10^-4 M after 48 hrs by sulforhodamine B assay; settings: NCI-H522, 48 h, read-out: Activity
# SN12C [7] = assay: Growth inhibition of human SN12C cells assessed as cell growth at 10^-4 M after 48 hrs by sulforhodamine B assay; settings: read-out: Activity
# SF-295 = assay: Growth inhibition of human SF295 cells assessed as cell growth at 10^-7 M after 48 hrs by sulforhodamine B assay; settings: SF-295, 48 h, read-out: Activity
# [8] = Growth inhibition of human NCI-ADR-RES cells assessed as cell growth at 10^-6 M after 48 hrs by sulforhodamine B assay; settings: read-out: Activity
# UACC-62 = assay: Growth inhibition of human UACC62 cells assessed as cell growth at 10^-8 M after 48 hrs by sulforhodamine B assay; settings: UACC-62, 48 h, read-out: Activity
# SW-620 = assay: Growth inhibition of human SW620 cells assessed as cell growth at 10^-4 M after 48 hrs by sulforhodamine B assay; settings: SW-620, 48 h, read-out: Activity
# A549 [9] = assay: Growth inhibition of human A549/ATCC cells assessed as cell growth at 10^-7 M after 48 hrs by sulforhodamine B assay; settings: A549, 48 h, read-out: Activity
# [10] = Growth inhibition of human Hs 578T cells assessed as cell growth at 10^-6 M after 48 hrs by sulforhodamine B assay; settings: read-out: Activity
# M14 = assay: Growth inhibition of human M14 cells assessed as cell growth at 10^-5 M after 48 hrs by sulforhodamine B assay; settings: M14, 48 h, read-out: Activity
# A549 [11] = assay: Growth inhibition of human A549/ATCC cells assessed as cell growth at 10^-5 M after 48 hrs by sulforhodamine B assay; settings: A549, 48 h, read-out: Activity
# [12] = Growth inhibition of human NCI-ADR-RES cells assessed as cell growth at 10^-7 M after 48 hrs by sulforhodamine B assay; settings: read-out: Activity
# MOLT-4 = assay: Growth inhibition of human MOLT4 cells assessed as cell growth at 10^-7 M after 48 hrs by sulforhodamine B assay; settings: MOLT-4, 48 h, read-out: Activity
# LOX IMVI = assay: Growth inhibition of human LOXIMVI cells assessed as cell growth at 10^-5 M after 48 hrs by sulforhodamine B assay; settings: read-out: Activity
# SR [13] = assay: Growth inhibition of human SR cells assessed as cell growth at 10^-6 M after 48 hrs by sulforhodamine B assay; settings: read-out: Activity
# ACHN [14] = assay: Growth inhibition of human ACHN cells assessed as cell growth at 10^-6 M after 48 hrs by sulforhodamine B assay; settings: read-out: Activity
# SNB-75 = assay: Growth inhibition of human SNB75 cells assessed as cell growth at 10^-8 M after 48 hrs by sulforhodamine B assay; settings: SNB-75, 48 h, read-out: Activity
# [15] = Growth inhibition of human Hs 578T cells assessed as cell growth at 10^-4 M after 48 hrs by sulforhodamine B assay; settings: read-out: Activity
# ACHN [16] = assay: Growth inhibition of human ACHN cells assessed as cell growth at 10^-4 M after 48 hrs by sulforhodamine B assay; settings: read-out: Activity
smiles,measurement,setting,value
COc1cc(-c2nn(-c3cccc(NC(=O)Nc4ccc(Cl)c(Cl)c4)c3)cc2-c2ccncc2)ccc1Cl,growth at 5 µM,[1],-2%
COc1cc(-c2nn(-c3cccc(NC(=O)Nc4cccc(C(F)(F)F)c4)c3)cc2-c2ccncc2)ccc1Cl,growth at 5 µM,[1],-10%
COc1cc(-c2nn(-c3cccc(NC(=O)Nc4ccc(Cl)c(C(F)(F)F)c4)c3)cc2-c2ccncc2)ccc1Cl,growth at 0.03 µM,HCT-116,103%
same,growth at 30 µM,KM12,-79%
same,growth at 0.03 µM,CCRF-CEM,95%
same,growth at 30 µM,UO-31,-28%
same,growth at 0.003 µM,NCI-H23,100%
same,growth at 0.003 µM,SNB-19 [2],95%
same,growth at 3 µM,SN12C [3],16%
same,growth at 3 µM,OVCAR-4,19%
same,growth at 0.003 µM,SK-MEL-5,98%
same,growth at 0.03 µM,SNB-19 [4],93%
same,growth at 0.03 µM,A498,93%
same,growth at 0.3 µM,RXF 393,88%
same,growth at 0.3 µM,OVCAR-3,100%
same,growth at 0.03 µM,[5],108%
same,growth at 3 µM,HL-60(TB),2%
same,growth at 0.3 µM,Malme-3M,96%
COc1cc(-c2nn(-c3cccc(NC(=O)c4cccc(C(F)(F)F)c4)c3)cc2-c2ccncc2)ccc1Cl,growth at 5 µM,[1],-21%
COc1cc(-c2nn(-c3cccc(NC(=O)c4ccc(Cl)c(C(F)(F)F)c4)c3)cc2-c2ccncc2)ccc1Cl,growth at 0.03 µM,HCT-116,101%
same,growth at 30 µM,KM12,17%
same,growth at 0.03 µM,CCRF-CEM,102%
same,growth at 30 µM,UO-31,11%
same,growth at 0.003 µM,NCI-H23,93%
same,growth at 0.003 µM,SNB-19 [2],95%
same,growth at 3 µM,SN12C [3],68%
same,growth at 3 µM,OVCAR-4,62%
same,growth at 0.003 µM,SK-MEL-5,99%
same,growth at 0.03 µM,SNB-19 [4],96%
same,growth at 0.03 µM,A498,89%
same,growth at 0.3 µM,RXF 393,89%
same,growth at 0.3 µM,OVCAR-3,98%
same,growth at 0.03 µM,[5],94%
same,growth at 3 µM,HL-60(TB),58%
same,growth at 0.3 µM,Malme-3M,88%
COc1cc(-c2nn(-c3cccc(NC(=O)c4ccc(N5CCOCC5)c(C(F)(F)F)c4)c3)cc2-c2ccncc2)ccc1Cl,growth at 100 µM,SR [6],6%
same,growth at 0.01 µM,MDA-MB-435,90%
same,growth at 1 µM,TK-10,58%
same,growth at 100 µM,NCI-H522,-23%
same,growth at 100 µM,SN12C [7],11%
same,growth at 0.1 µM,SF-295,60%
same,growth at 1 µM,[8],11%
same,growth at 0.01 µM,UACC-62,95%
same,growth at 100 µM,SW-620,10%
same,growth at 0.1 µM,A549 [9],69%
same,growth at 1 µM,[10],6%
same,growth at 10 µM,M14,8%
same,growth at 10 µM,A549 [11],7%
same,growth at 0.1 µM,[12],72%
same,growth at 0.1 µM,MOLT-4,105%
same,growth at 10 µM,LOX IMVI,-8%
same,growth at 1 µM,SR [13],8%
same,growth at 1 µM,ACHN [14],39%
same,growth at 0.01 µM,SNB-75,89%
same,growth at 100 µM,[15],14%
same,growth at 100 µM,ACHN [16],2%
O=C(Nc1cccc(-n2cc(-c3ccncc3)c(-c3ccc(Cl)c(O)c3)n2)c1)Nc1ccc(Cl)c(Cl)c1,growth at 0.03 µM,HCT-116,100%
same,growth at 30 µM,KM12,-56%
same,growth at 0.03 µM,CCRF-CEM,98%
same,growth at 30 µM,UO-31,7%
same,growth at 0.003 µM,NCI-H23,90%
same,growth at 0.003 µM,SNB-19 [2],98%
same,growth at 3 µM,SN12C [3],17%
same,growth at 3 µM,OVCAR-4,28%
same,growth at 0.003 µM,SK-MEL-5,96%
same,growth at 0.03 µM,SNB-19 [4],98%
same,growth at 0.03 µM,A498,95%
same,growth at 0.3 µM,RXF 393,83%
same,growth at 0.3 µM,OVCAR-3,103%
same,growth at 0.03 µM,[5],97%
same,growth at 3 µM,HL-60(TB),16%
same,growth at 0.3 µM,Malme-3M,102%
O=C(Nc1cccc(-n2cc(-c3ccncc3)c(-c3ccc(Cl)c(O)c3)n2)c1)Nc1cccc(C(F)(F)F)c1,growth at 0.03 µM,HCT-116,97%
same,growth at 30 µM,KM12,1%
same,growth at 0.03 µM,CCRF-CEM,96%
same,growth at 30 µM,UO-31,11%
same,growth at 0.003 µM,NCI-H23,94%
same,growth at 0.003 µM,SNB-19 [2],94%
same,growth at 3 µM,SN12C [3],37%
same,growth at 3 µM,OVCAR-4,49%
same,growth at 0.003 µM,SK-MEL-5,103%
same,growth at 0.03 µM,SNB-19 [4],98%
same,growth at 0.03 µM,A498,83%
same,growth at 0.3 µM,RXF 393,88%
same,growth at 0.3 µM,OVCAR-3,92%
same,growth at 0.03 µM,[5],97%
same,growth at 3 µM,HL-60(TB),41%
same,growth at 0.3 µM,Malme-3M,87%
O=C(Nc1cccc(-n2cc(-c3ccncc3)c(-c3ccc(Cl)c(O)c3)n2)c1)Nc1ccc(Cl)c(C(F)(F)F)c1,growth at 0.03 µM,HCT-116,106%
same,growth at 30 µM,KM12,-70%
same,growth at 0.03 µM,CCRF-CEM,97%
same,growth at 30 µM,UO-31,-28%
same,growth at 0.003 µM,NCI-H23,97%
same,growth at 0.003 µM,SNB-19 [2],96%
same,growth at 3 µM,SN12C [3],15%
same,growth at 3 µM,OVCAR-4,17%
same,growth at 0.003 µM,SK-MEL-5,99%
same,growth at 0.03 µM,SNB-19 [4],94%
same,growth at 0.03 µM,A498,91%
same,growth at 0.3 µM,RXF 393,69%
same,growth at 0.3 µM,OVCAR-3,101%
same,growth at 0.03 µM,[5],102%
same,growth at 3 µM,HL-60(TB),6%
same,growth at 0.3 µM,Malme-3M,77%
O=C(Nc1cccc(-n2cc(-c3ccncc3)c(-c3ccc(Cl)c(O)c3)n2)c1)Nc1cc(C(F)(F)F)cc(C(F)(F)F)c1,growth at 5 µM,[1],1%
O=C(Nc1cccc(-n2cc(-c3ccncc3)c(-c3ccc(Cl)c(O)c3)n2)c1)c1ccc(N2CCOCC2)c(C(F)(F)F)c1,growth at 5 µM,[1],35%
